In ChEMBL document CHEMBL1144829, “2-Arylbenzoxazoles as novel cholesteryl ester transfer protein inhibitors: optimization via array synthesis” (Bioorg Med Chem Lett, 2008) one finds IC50 data, which are given here for 72 compounds.

Experiment [1] concerns the target T1, Cholesteryl ester transfer protein (Homo sapiens, UniProt P11597).
T1 sequence (P11597 whole entry): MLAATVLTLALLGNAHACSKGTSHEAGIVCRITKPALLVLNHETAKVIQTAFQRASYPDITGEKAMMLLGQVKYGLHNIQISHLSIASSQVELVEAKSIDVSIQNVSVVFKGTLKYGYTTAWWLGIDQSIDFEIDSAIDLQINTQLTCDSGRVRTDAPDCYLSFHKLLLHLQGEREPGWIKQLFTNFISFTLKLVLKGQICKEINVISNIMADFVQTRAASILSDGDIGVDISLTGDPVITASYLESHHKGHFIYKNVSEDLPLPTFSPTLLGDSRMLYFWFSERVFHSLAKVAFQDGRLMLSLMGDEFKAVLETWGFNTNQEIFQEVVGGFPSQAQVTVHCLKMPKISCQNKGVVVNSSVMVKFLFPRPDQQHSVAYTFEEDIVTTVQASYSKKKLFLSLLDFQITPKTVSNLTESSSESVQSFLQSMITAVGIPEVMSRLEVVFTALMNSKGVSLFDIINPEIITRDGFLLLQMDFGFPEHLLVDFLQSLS
Nature of the experiment: Inhibition of human CETP by scintillation proximity assay. For orientation: In a scintillation proximity assay essentially only radioactivity close to the scintillant gives light.

In experiment [2] the target is T1, Cholesteryl ester transfer protein. Nature of the experiment: Inhibition of CETP in human whole plasma.

Each structure is given as a SMILES string.

As for `COc1ccc(OCC(=O)Nc2ccc(-c3nc4cc(C)cc(C)c4o3)cc2)cc1`, the IC50 in experiment [1] is more than 10 µM.
In turn, `Cc1ccccc1OCC(=O)Nc1ccc(-c2nc3ccc([N+](=O)[O-])cc3o2)cc1` came in with an IC50 in experiment [1] of more than 32 µM.
The same measure, in the same setting: the result for `Cc1ccccc1OCC(=O)Nc1ccc(-c2nc3ccc(Cl)cc3o2)cc1` reads more than 32 µM.
Same read-out and setting: the result for `Cc1cc(C)c2oc(-c3ccc(NC(=O)COc4ccccc4C#N)cc3)nc2c1` reads more than 10 µM.
As to `Cc1cc(C)c2oc(-c3ccc(NC(=O)COc4ccc(OC(F)(F)F)cc4)cc3)nc2c1`, in experiment [1], the IC50 is more than 10 µM.
On the same count and under the same terms, the result for `Cc1ccccc1OCC(=O)Nc1ccc(-c2nc3cc(-c4ccccc4)ccc3o2)cc1` reads 1.9 µM.
In the case of `Cc1cc(C)c2oc(-c3ccc(NC(=O)COc4cccc(C#N)c4)cc3)nc2c1`, in experiment [1], the IC50 is more than 10 µM.
`Cc1cc(C)c2oc(-c3ccc(NC(=O)COc4ccc(F)cc4)cc3)nc2c1`: the IC50 in experiment [2] worked out at 31 µM; in experiment [1], 7.3 µM.
Turning to `Cc1ccccc1OCC(=O)Nc1ccc(-c2nc3cccc(C(=O)O)c3o2)cc1`, the 50% inhibitory concentration (IC50) in experiment [1] was more than 32 µM.
On to `COc1cccc(OCC(=O)Nc2ccc(-c3nc4cc(C)cc(C)c4o3)cc2)c1`, for which the IC50 in experiment [1] was more than 10 µM.
On the same count and under the same terms, the result for `COc1ccccc1OCC(=O)Nc1ccc(-c2nc3cc(C)cc(C)c3o2)cc1` reads 8.3 µM; that for `Cc1cc(C)c2oc(-c3ccc(NC(=O)COc4ccc(C(F)(F)F)cc4)cc3)nc2c1`, more than 10 µM.
With `Cc1cc(C)c2oc(-c3ccc(NC(=O)COc4ccccc4C(F)(F)F)cc3)nc2c1`, the figures for the IC50 in experiment [2] and in experiment [1] were 91 µM and 1.9 µM, respectively.
As for `Cc1ccccc1OCC(=O)Nc1ccc(-c2nc3cc(F)ccc3o2)cc1`, in experiment [1], the IC50 was more than 32 µM.
`Cc1ccc2oc(-c3ccc(NC(=O)COc4ccccc4C)cc3)nc2c1`: the results for the concentration for half-maximal inhibition (IC50) in experiment [2] and in experiment [1] were 31 µM and 1.1 µM, respectively.
Compound `COC(=O)c1ccc2oc(-c3ccc(NC(=O)COc4ccccc4C)cc3)nc2c1` registered a half-maximal inhibitory concentration (IC50) in experiment [1] of more than 32 µM.
With `Cc1ccccc1OCC(=O)Nc1ccc(-c2nc3cc(Cl)cc(Br)c3o2)cc1`, the IC50 amounted to 26 µM in experiment [2] and 0.097 µM in experiment [1].
For the compound `Cc1cc(C)c2oc(-c3ccc(NC(=O)COc4cccc(-c5ccccc5)c4)cc3)nc2c1`, in experiment [1], half-maximal inhibition (IC50) was put at 2.3 µM.
`Cc1cc(C)c2oc(-c3ccc(NC(=O)COc4ccc(-c5ccccc5)cc4)cc3)nc2c1` yielded an IC50 in experiment [1] of more than 10 µM.
The same measure, in the same setting: the result for `CCS(=O)(=O)c1ccc2oc(-c3ccc(NC(=O)COc4ccccc4C)cc3)nc2c1` reads 9.3 µM.
For `Cc1ccccc1OCC(=O)Nc1ccc(-c2nc3cc(C(F)(F)F)cc(C(F)(F)F)c3o2)cc1`, the IC50 is 9.1 µM in experiment [2] and 0.092 µM in experiment [1].
As to `Cc1ccccc1OCC(=O)Nc1ccc(-c2nc3cc(Cl)cc(Cl)c3o2)cc1`, the values for the IC50 in experiment [2] and in experiment [1] were 11 µM and 0.088 µM, respectively.
In the case of `Cc1ccccc1OCC(=O)Nc1ccc(-c2nc3cc(C#N)ccc3o2)cc1`, the IC50 in experiment [2] amounted to 3.3 µM; in experiment [1], 0.057 µM.
For `Cc1ccccc1OCC(=O)Nc1ccc(-c2nc3ccc(F)cc3o2)cc1`, the half-inhibitory concentration (IC50) in experiment [1] was more than 32 µM.
On the same count and under the same terms, the result for `Cc1cc(C)c2oc(-c3ccc(NC(=O)COc4ccccc4F)cc3)nc2c1` reads more than 10 µM.
On to `Cc1cccc(OCC(=O)Nc2ccc(-c3nc4cc(C)cc(C)c4o3)cc2)c1`, for which the IC50 came out at 18 µM in experiment [2] and 0.69 µM in experiment [1].
Take `Cc1ccc(C)c(OCC(=O)Nc2ccc(-c3nc4cc(C)cc(C)c4o3)cc2)c1`: in experiment [1], the IC50 was more than 10 µM.
`Cc1cc(C)c2oc(-c3ccc(NC(=O)COc4ccc(Br)cc4C)cc3)nc2c1`: the IC50 came out at 3.2 µM in experiment [2] and 0.031 µM in experiment [1].
For `Cc1ccccc1OCC(=O)Nc1ccc(-c2nc3cc([N+](=O)[O-])ccc3o2)cc1` the same measures were 18 µM and 0.12 µM.
On the same counts, the results for `Cc1cc(C)c2oc(-c3ccc(NC(=O)COc4ccc(Cl)cc4C)cc3)nc2c1` are 2.7 µM and 0.096 µM.
Regarding `Cc1ccccc1OCC(=O)Nc1ccc(-c2nc3cc(Cl)ccc3o2)cc1`, the IC50 in experiment [2] is 21 µM; in experiment [1], 0.47 µM.
`Cc1cc(C)cc(OCC(=O)Nc2ccc(-c3nc4cc(C)cc(C)c4o3)cc2)c1` yielded an IC50 in experiment [1] of more than 10 µM.
Same read-out and setting: the result for `Cc1cc(C)c2oc(-c3ccc(NC(=O)COc4ccccc4-c4ccccc4)cc3)nc2c1` reads 3.3 µM.
Turning to `Cc1ccccc1OCC(=O)Nc1ccc(-c2nc3cc(OC(F)(F)F)ccc3o2)cc1`, the IC50 was found to be 71 µM in experiment [2] and 11 µM in experiment [1].
On the same counts, the results for `Cc1ccccc1OCC(=O)Nc1ccc(-c2nc3cc(Br)ccc3o2)cc1` are 28 µM and 0.44 µM.
Regarding `Cc1cc(C)c2oc(-c3ccc(NC(=O)COc4ccccc4Cl)cc3)nc2c1`, the IC50 in experiment [1] was more than 10 µM.
As to `Cc1cc(C)c2oc(-c3ccc(NC(=O)COc4cccc(Cl)c4)cc3)nc2c1`, the IC50 in experiment [2] was found to be 11 µM; in experiment [1], 1.3 µM.
For the compound `Cc1cc(C)c2oc(-c3ccc(NC(=O)COc4cc(Cl)ccc4Cl)cc3)nc2c1`, the IC50 in experiment [1] is more than 10 µM.
Turning to `Cc1ccc2nc(-c3ccc(NC(=O)COc4ccccc4C)cc3)oc2c1`, the IC50 in experiment [1] was found to be 13 µM. This counts as double-digit micromolar.
As to `Cc1ccccc1OCC(=O)Nc1ccc(-c2nc3cccc(C)c3o2)cc1`, the IC50 in experiment [2] turned out to be 100 µM; in experiment [1], 1.7 µM.
In experiment [1], `COC(=O)c1cccc(OCC(=O)Nc2ccc(-c3nc4cc(C)cc(C)c4o3)cc2)c1` registered a half-inhibitory concentration (IC50) of more than 10 µM.
Turning to `COC(=O)c1cccc2nc(-c3ccc(NC(=O)COc4ccccc4C)cc3)oc12`, the concentration for half-maximal inhibition (IC50) worked out at 80 µM in experiment [2] and 3.5 µM in experiment [1].
Regarding `Cc1ccccc1OCC(=O)Nc1ccc(-c2nc3ccc(N4CCCC4)cc3o2)cc1`, in experiment [1], the IC50 was more than 32 µM.
Consider `Cc1ccc(OCC(=O)Nc2ccc(-c3nc4cc(C)cc(C)c4o3)cc2)c(C)c1`, for which the IC50 in experiment [2] amounted to 4.5 µM; in experiment [1], 0.14 µM.
Consider `Cc1ccccc1OCC(=O)Nc1ccc(-c2nc3c(C)cccc3o2)cc1`, for which the 50% inhibitory concentration (IC50) in experiment [1] is more than 32 µM.
In experiment [1], `Cc1ccccc1OCC(=O)Nc1ccc(-c2nc3c([N+](=O)[O-])cccc3o2)cc1` showed an IC50 of more than 32 µM.
Take `Cc1cc(C)c2oc(-c3ccc(NC(=O)COc4ccc(Cl)c(C(F)(F)F)c4)cc3)nc2c1`: the IC50 in experiment [2] worked out at 4.9 µM; in experiment [1], 0.12 µM.
For `Cc1ccccc1OCC(=O)Nc1ccc(-c2nc3cc(C(F)(F)F)ccc3o2)cc1` the same measures were 51 µM and 0.59 µM.
On the same counts, the results for `CC(=O)c1ccc2oc(-c3ccc(NC(=O)COc4ccccc4C)cc3)nc2c1` are 18 µM and 1.2 µM.
In turn, `Cc1ccccc1OCC(=O)Nc1ccc(-c2nc3cc(C(C)(C)C)ccc3o2)cc1` gave an IC50 in experiment [1] of more than 32 µM.
`Cc1ccccc1OCC(=O)Nc1ccc(-c2nc3cc(CO)ccc3o2)cc1`: the IC50 came to 27 µM in experiment [2] and 1.3 µM in experiment [1].
On the same counts, the results for `Cc1ccc(OCC(=O)Nc2ccc(-c3nc4cc(C)cc(C)c4o3)cc2)cc1` are 26 µM and 0.24 µM.
On the same counts, the results for `Cc1cc(C)c2oc(-c3ccc(NC(=O)COc4cccc(F)c4)cc3)nc2c1` are 51 µM and 1.1 µM.
For `Cc1ccccc1OCC(=O)Nc1ccc(-c2nc3cc(Cl)cc([N+](=O)[O-])c3o2)cc1` the same measures were 18 µM and 0.049 µM.
Take `Cc1ccccc1OCC(=O)Nc1ccc(-c2nc3cc(C#N)cc(Cl)c3o2)cc1`: the IC50 in experiment [2] was 2.5 µM; in experiment [1] it was 0.052 µM.
Turning to `Cc1cc(C)c2oc(-c3ccc(NC(=O)COc4ccc(C#N)cc4)cc3)nc2c1`, the IC50 in experiment [1] is more than 10 µM.
`Cc1cc(C)c2oc(-c3ccc(NC(=O)COc4ccc(Cl)cc4)cc3)nc2c1`: the IC50 in experiment [2] came out at 20 µM; in experiment [1], 0.38 µM.
For the compound `COC(=O)c1ccccc1OCC(=O)Nc1ccc(-c2nc3cc(C)cc(C)c3o2)cc1`, inhibition in experiment [1] was half-maximal at 0.22 µM (IC50).
Take `Cc1cc(C)c2oc(-c3ccc(NC(=O)COc4ccc(F)cc4C)cc3)nc2c1`: the IC50 in experiment [2] is 4.9 µM; in experiment [1] it was 0.023 µM.
In turn, `Cc1cc(C)c2oc(-c3ccc(NC(=O)COc4ccccc4OC(F)(F)F)cc3)nc2c1` displayed an IC50 in experiment [1] of 0.2 µM.
In experiment [1], `COc1ccc2nc(-c3ccc(NC(=O)COc4ccccc4C)cc3)oc2c1` had an IC50 of more than 32 µM.
The same measure, in the same setting: the result for `Cc1cc(C)c2oc(-c3ccc(NC(=O)COc4c(C)cccc4Cl)cc3)nc2c1` reads more than 10 µM.
With `Cc1cc(C)c2oc(-c3ccc(NC(=O)COc4ccccc4C(C)C)cc3)nc2c1`, the half-maximal inhibitory concentration (IC50) in experiment [1] was more than 10 µM.
As to `CC(=O)c1cc(C)cc2nc(-c3ccc(NC(=O)COc4ccccc4C)cc3)oc12`, the results for the IC50 in experiment [2] and in experiment [1] were 27 µM and 0.24 µM, respectively.
In the case of `COc1ccc2oc(-c3ccc(NC(=O)COc4ccccc4C)cc3)nc2c1`, in experiment [1], the 50% inhibitory concentration (IC50) is more than 32 µM.
In turn, `Cc1ccccc1OCC(=O)Nc1ccc(-c2nc3cc(C(=O)O)ccc3o2)cc1` displayed an IC50 in experiment [1] of more than 32 µM.
On the same count and under the same terms, the result for `COC(=O)c1ccc2nc(-c3ccc(NC(=O)COc4ccccc4C)cc3)oc2c1` reads more than 32 µM.
As to `Cc1cc(C)c2oc(-c3ccc(NC(=O)COc4ccc(Cl)c(Cl)c4)cc3)nc2c1`, the IC50 worked out at 13 µM in experiment [2] and 0.2 µM in experiment [1].
On to `Cc1cc(C)c2oc(-c3ccc(NC(=O)COc4c(Cl)cccc4Cl)cc3)nc2c1`, for which, in experiment [1], the IC50 was more than 10 µM.
Take `Cc1cc(C)c2oc(-c3ccc(NC(=O)COc4ccccc4C)cc3)nc2c1`: the IC50 in experiment [2] was determined as 8.9 µM; in experiment [1] it was 0.28 µM.
On the same counts, the results for `Cc1cc(C)c2oc(-c3ccc(NC(=O)COc4cccc(OC(F)(F)F)c4)cc3)nc2c1` are 61 µM and 3.6 µM.
For `Cc1cc(C)c2oc(-c3ccc(NC(=O)COc4cccc(C(C)C)c4)cc3)nc2c1` the same measures were 67 µM and 0.9 µM.

For orientation: IC50 means the point on the concentration scale where inhibition reaches its midpoint.
